SMILES strings stand for the structures. Read-outs that look alike come from different tables or passages of the source.

Assay [1] relates to NCI60 tumor cell line panel. Briefly: NCI60 one-dose screen (10 μM), mean growth. It is filed as cell-based, human. Particulars: for activity at 10 µM: Homo sapiens; for activity at 10 µM / mean growth (%, 10 μM): 48 h, one dose 10 μM, mean cell growth of 60 tumor cell lines. On the procedure: (§1) S2.1 NCI Screening Assay Experimental details
(§2) NCI Screening Assay Experimental: Cancer cell growth assays (NCI60 screening) 5,6 One-dose study: Tested compounds were initially solubilised in DMSO, diluted into RPMI 1640 and 5% fetal bovine serum/L-glutamine, and added to 96-well plates containing cell lines previously cultured for 24 h. After 48 h incubation, the media were removed, and the cells were fixed and stained with sulforhodamine B to determine overall percent growth/ total protein content. Unbound dye was removed with five washes of 1% acetic acid, and the plates were allowed to air dry. The dye was then resolubilised in Tris buffer, and the colorimetric absorbance was measured (515 nm). Growth inhibition was measured relative to the response generated from proliferating cells cultured under identical conditions for 48 h. […]

The test system of assay [2] is NCI60 tumor cell line panel. Briefly: NCI60 five-dose screen, mean over panel. The assay is classed as cell-based, human. To be noted: five dose.
Excerpt: (§3) The concentration−response curve generated enables the determination of three criteria, GI50 (drug concentration at which 50% of cell growth is inhibited), total growth inhibition (TGI) and LC50 (drug concentration at which 50% of tumor cells are killed) which can be used to compare effectiveness against any compound tested in the screen since its inception.
as §1
(§4) NCI Screening Assay Experimental: Cancer cell growth assays (NCI60 screening) 5,6 One-dose study: Tested compounds were initially solubilised in DMSO, diluted into RPMI 1640 and 5% fetal bovine serum/L-glutamine, and added to 96-well plates containing cell lines previously cultured for 24 h. After 48 h incubation, the media were removed, and the cells were fixed and stained with sulforhodamine B to determine overall percent growth/ total protein content. Unbound dye was removed with five washes of 1% acetic acid, and the plates were allowed to air dry. The dye was then resolubilised in Tris buffer, and the colorimetric absorbance was measured (515 nm). Growth inhibition was measured relative to the response generated from proliferating cells cultured under identical conditions for 48 h. Data from one-dose experiments pertains to the percentage growth at […]
(§5) Five-dose study: Serial 5 × 10-fold dilution from an initial DMSO stock solution was performed, prior to incubation at each individual concentration (10 nM, 100 nM, 1 μM, 10 μM and 100 μM). Using seven absorbance measurements (time zero (Tz), control growth (C), and test growth in the presence of drug at the five concentration levels (Ti)), the percentage growth was calculated at each of the drug concentrations levels. Percentage growth inhibition was calculated as: [(Ti − Tz)/(C − Tz)] × 100 for concentrations for which Ti ≥ Tz, [(Ti − Tz)/Tz] × 100 for concentrations for which Ti < Tz. Three dose response parameters were calculated for each experimental agent. […]
(§6) was calculated from [(Ti − Tz)/(C − Tz)] × 100 = 50, which is the drug concentration resulting in a 50% reduction in the net protein increase (as measured by sulforhodamine B staining) in control cells during the drug incubation. The drug concentration resulting in total growth inhibition (TGI) was calculated from Ti = Tz. The LC50 (concentration of drug resulting in a 50% reduction in the measured protein at the end of the drug treatment as compared to that at the beginning) indicating a net loss of cells following treatment was calculated from [(Ti − Tz)/Tz] × 100 = −50. Values were calculated for each of these three parameters if the level of activity was reached; however, if the effect was not reached or was exceeded, the value for that parameter was expressed as greater or less than the maximum or minimum concentration tested.

Assay [3] relates to COLO-205. Briefly: NCI60 five-dose GI50. To be noted: Homo sapiens, colon. It is filed as cell-based.
Excerpt: as §3, §1, §4, §5, §6

Assay [4] concerns K-562. The assay can be described thus: NCI60 five-dose GI50. The assay is classed as cell-based. To be noted: Homo sapiens, K562, five dose.
Excerpt: as §3, §1, §4, §5, §6

The subject of assay [5] is LOX-IMVI. Briefly: NCI60 five-dose GI50. The assay is classed as cell-based. To be noted: Homo sapiens, melanoma.
Excerpt: as §3, §1, §4, §5, §6

The subject of assay [6] is MCF-7. Briefly: NCI60 five-dose GI50. To be noted: Homo sapiens, MCF7, breast. It is filed as cell-based.
Excerpt: as §3, §1, §4, §5, §6

Assay [7] has as its system NCI-ADR/RES. Briefly: NCI60 five-dose GI50. It is filed as cell-based. To be noted: Homo sapiens, MDR ovarian.
Excerpt: as §3, §1, §4, §5, §6

The test system of assay [8] is OVCAR-3. Briefly: NCI60 five-dose GI50. To be noted: Homo sapiens, ovarian. It is filed as cell-based.
Excerpt: as §3, §1, §4, §5, §6

Assay [9] concerns UACC-62. Briefly: NCI60 five-dose GI50. It is filed as cell-based. Particulars: Homo sapiens, melanoma.
Excerpt: as §3, §1, §4, §5, §6

Assay [10] deals with OVCAR-8. The assay can be described thus: NCI60 five-dose GI50. The assay is classed as cell-based. To be noted: Homo sapiens, ovarian.
Excerpt: as §3, §1
as §2, with “nm).” for “nm). Growth inhibition was measured relative to the response generated from proliferating cells cultured under identical conditions for 48 h.”
as §5, §6

[11] abbreviates: Homo sapiens, across 57-60 cell lines (number given per compound), read-out: Mean of GI50 as Log 10 Concentration (SD) (converted).
Where [12] appears, read: mean over 52 human tumor cell lines common to all analogues, read-out: mean GI50.

As for `COC(=O)c1c2c(c(C)[n+]([O-])c1C)C(=O)C(NCc1ccc(OC)cc1)=CC2=O` [Compound 6], the activity at 10 µM in assay [1] was found to be 19%. Besides, the GI50 in assay [2] (setting [11]) was 2040 nM; in assay [2] (setting [12]), 2120 nM; in [3], 839 nM; in [4] (leukemia), 2670 nM; in assay [5], 2410 nM; in assay [6], 1410 nM. In addition, the GI50 in assay [7] came to 2420 nM; in assay [8], 315 nM; in assay [9], 1720 nM; in assay [10], 2780 nM.

On to `COC(=O)c1c2c(c(C)[n+]([O-])c1C)C(=O)C=C(NCc1ccc(OC)cc1)C2=O` [Compound 7], for which the activity at 10 µM in [1] is -34%. For the same molecule, the “mean growth (%, 10 μM)” value in assay [1] was -34%. Besides, the GI50 in [2] (setting [11]) was 1530 nM; in [2] (setting [12]) it was 900 nM; in [3] it was 325 nM; in assay [4] (leukemia) it was 491 nM; in assay [5], 408 nM; in assay [6] it was 300 nM. In addition, the GI50 in assay [7] amounted to 419 nM; in [8] it was 284 nM; in [9], 374 nM; in assay [10] it was 452 nM.

As to `COC(=O)c1c2c(c(C)[n+]([O-])c1C)C(=O)C(NCc1cccc(OC)c1)=CC2=O` [Compound 8], the activity at 10 µM in assay [1] came to 23%. The GI50 in assay [2] (setting [11]) is 2210 nM; in assay [2] (setting [12]), 2290 nM; in assay [3], 1100 nM; in assay [4] (leukemia), 2980 nM; in assay [5], 2360 nM; in assay [6] it was 1650 nM. The GI50 in [7] amounted to 2360 nM; in assay [8], 512 nM; in assay [9], 1700 nM; in [10], 2520 nM.

Take `COC(=O)c1c2c(c(C)[n+]([O-])c1C)C(=O)C=C(NCc1cccc(OC)c1)C2=O` [Compound 9]: the activity at 10 µM in assay [1] is -52%. In addition, in assay [1], the “mean growth (%, 10 μM)” value was -52%. Moreover, the GI50 in [2] (setting [11]) is 607 nM; in assay [2] (setting [12]), 740 nM; in assay [3], 252 nM; in [4] (leukemia), 416 nM; in [5], 302 nM; in assay [6], 286 nM. Also, the GI50 in assay [7] was determined as 441 nM; in [8], 259 nM; in assay [9], 306 nM; in assay [10], 339 nM.

As for `COC(=O)c1c2c(c(C)[n+]([O-])c1C)C(=O)C(NCc1ccc(Cl)cc1)=CC2=O` [Compound 10], the one-dose screen outcome in [1] (10 μM) was “did not achieve sufficient growth inhibition”. In addition, the activity at 10 µM in [1] was determined as 57%.

`COC(=O)c1c2c(c(C)[n+]([O-])c1C)C(=O)C=C(NCc1ccc(Cl)cc1)C2=O` [Compound 11]: the activity at 10 µM in assay [1] was -32%. Moreover, in [1], the “mean growth (%, 10 μM)” value was -32%. In addition, the GI50 was 412 nM in assay [2] (setting [11]); 550 nM in assay [2] (setting [12]); 238 nM in assay [3]; less than 150 nM in assay [4]; 58 nM in assay [4] (leukemia); 39 nM in [5]. The GI50 in assay [6] was 267 nM; in assay [7], 267 nM; in assay [8], 208 nM; in [9], 55 nM; in assay [10] it was 292 nM.

As for `COC(=O)c1c2c(c(C)[n+]([O-])c1C)C(=O)C(NCc1cccc(Cl)c1)=CC2=O` [Compound 12], the activity at 10 µM in assay [1] was 12%. The GI50 in assay [2] (setting [11]) is 1340 nM; in [2] (setting [12]), 1480 nM; in assay [3], 388 nM; in assay [4] (leukemia) it was 2170 nM; in assay [5], 1760 nM; in assay [6] it was 1100 nM. Moreover, the GI50 is 1640 nM in [7], 322 nM in assay [8], 1240 nM in [9] and 1520 nM in assay [10].

With `COC(=O)c1c2c(c(C)[n+]([O-])c1C)C(=O)C=C(NCc1cccc(Cl)c1)C2=O` [Compound 13], the activity at 10 µM in assay [1] was -42%. The “mean growth (%, 10 μM)” value in assay [1] is reported as -42%. For the same molecule, the GI50 is 405 nM in assay [2] (setting [11]); 620 nM in [2] (setting [12]); 263 nM in assay [3]; less than 150 nM in [4]; 109 nM in [4] (leukemia); 94 nM in [5]. In addition, the GI50 in assay [6] turned out to be 270 nM; in [7], 352 nM; in assay [8], 243 nM; in [9], 144 nM; in assay [10], 297 nM.

Turning to `COC(=O)c1c2c(c(C)[n+]([O-])c1C)C(=O)C(NCc1ccc(Br)cc1)=CC2=O` [Compound 14], in assay [1], the activity at 10 µM worked out at 18%. In addition, the GI50 in assay [2] (setting [11]) was 1640 nM; in [2] (setting [12]), 1800 nM; in assay [3], 659 nM; in [4] (leukemia) it was 2380 nM; in [5] it was 1670 nM; in [6] it was 1330 nM. Also, the GI50 in assay [7] is 1970 nM; in [8], 301 nM; in [9], 1170 nM; in [10], 1830 nM.

Turning to `COC(=O)c1c2c(c(C)[n+]([O-])c1C)C(=O)C=C(NCc1ccc(Br)cc1)C2=O` [Compound 15], the activity at 10 µM in assay [1] is -50%. In addition, in [1], the “mean growth (%, 10 μM)” value is on record as -50%. Also, the GI50 is 515 nM in assay [2] (setting [11]); 780 nM in [2] (setting [12]); 313 nM in assay [3]; less than 150 nM in [4]; 47 nM in assay [4] (leukemia); 84 nM in assay [5]. For the same molecule, the GI50 in [6] was 289 nM; in [7], 439 nM; in assay [8], 273 nM; in assay [9], 46 nM; in assay [10], 465 nM.

In the case of `COC(=O)c1c2c(c(C)[n+]([O-])c1C)C(=O)C(NCc1ccc(F)c(F)c1)=CC2=O` [Compound 16], the activity at 10 µM in [1] was found to be 11%. In addition, the GI50 in assay [2] (setting [11]) was 1780 nM; in assay [2] (setting [12]) it was 1910 nM; in [3] it was 673 nM; in assay [4] (leukemia), 2230 nM; in [5], 1980 nM; in assay [6], 1480 nM. The GI50 in [7] amounted to 2300 nM; in assay [8], 333 nM; in assay [9] it was 1530 nM; in assay [10], 1960 nM.

Consider `COC(=O)c1c2c(c(C)[n+]([O-])c1C)C(=O)C=C(NCc1ccc(F)c(F)c1)C2=O` [Compound 17], for which the activity at 10 µM in [1] is -49%. For the same molecule, in assay [1], the “mean growth (%, 10 μM)” value is -49%. Also, the GI50 in assay [2] (setting [11]) was 421 nM; in assay [2] (setting [12]), 580 nM; in assay [3] it was 260 nM; in assay [4], less than 150 nM; in assay [4] (leukemia), 113 nM; in [5], 64 nM. For the same molecule, the GI50 worked out at 290 nM in assay [6]; 345 nM in [7]; 258 nM in assay [8]; 68 nM in assay [9]; 299 nM in assay [10].

The values are drawn from article PMC11345829, “Discovery of Potent Isoquinolinequinone N-Oxides to Overcome Cancer Multidrug Resistance” (Journal of Medicinal Chemistry, 2024).
